Experimental data published in patent publication US9296759B2, “Amino-oxazine and amino-dihydrothiazine compounds as beta-secretase modulators and methods of use” (AMGEN INC., priority 2011, dated 2016).

Legend:
[1] = target: BACE 1 (beta secretase enzyme) (Homo sapiens (Human), UniProt P56817); assay: In vitro enzymatic BACE FRET assay; type: biochemical; conditions: average IC50
Experimental: In Vitro Enzymatic BACE FRET (Fluorescence Resonance Energy Transfer) Assay
The assay buffer used in this screen is 0.05 M acetate, pH 4.2, 10% DMSO final, 100 uM genapol (which is a nonionic detergent, below its Critical Micelle Concentration). […] This assay is effectively started by the addition of FRET substrate (50 nM) and the combination is incubated for one hour. The FRET assay is terminated with by addition of Tris buffer, which raises the pH to neutrality, and the fluorescence is determined. The FRET substrate is a peptide with commercially available fluorophore and quencher, on opposite sides of the BACE cleavage site. Proteolytic cleavage of the FRET substrate releases quenching of fluorescence (excitation […] and […]).

Cathepsin D = Cathepsin D (Homo sapiens (Human), UniProt P07339); assay: In vitro enzymatic Cat D (Cathepsin D) FRET assay; type: biochemical; conditions: average IC50
Experimental: In Vitro Enzymatic Cat D (Cathepsin D) FRET (Fluorescence Resonance Energy Transfer) Assay
Recombinant CathepsinD was expressed in CHO cells. The assay buffer for CathepsinD is 0.05 M citrate pH 3.5, 10% DMSO final, 5 mM CHAPS. […] The assays are effectively started by the addition of different FRET substrates (20 nM for CathepsinD) and the combination is incubated for one hour. The FRET assay is terminated with by addition of Tris buffer, which raises the pH to neutrality, and the fluorescence is determined. The FRET substrate is a peptide with commercially available fluorophore and quencher, on opposite sides of the BACE cleavage site. […] Proteolytic cleavage of the FRET substrate releases quenching of fluorescence (CathepsinD excitation 500 nm and emission 580 nm).

[2] = system: Aβ40 in conditioned medium of cells stably expressing Amyloid Precursor Protein (APP); assay: In vitro BACE cell-based assay (HEK cell assay, Aβ40 sandwich ELISA); conditions: average IC50, Aβ40, 24 h incubation
Experimental: In Vitro BACE Cell-Based Assay
The cell-based assay measures inhibition or reduction of Aβ40 in conditioned medium of test compound treated cells expressing amyloid precursor protein.
Cells stably expressing Amyloid Precursor Protein (APP) were plated at a density of 40K cells/well in 96 well plates (Costar). The cells were cultivated for 24 hours at 37° C. and 5% CO2 in DMEM supplemented with 10% FBS. The test compounds were then added to cells in 10-point dose response concentrations with the starting concentration being either 100 μM or 10 μM. The compounds were diluted from stock solutions in DMSO and the final DMSO concentration of the test compounds on cells was 0.1%. After 24 h of incubation with the test compounds the supernatant conditioned media was collected and the Aβ 40 levels were determined using a sandwich ELISA. The IC50 of the compound was calculated from the percent of control or percent inhibition of Aβ 40 as a function of the concentration of the test compound.
The sandwich ELISA to detect Aβ 40 was performed in 96 well microtiter plates, which were pre-treated with goat anti-rabbit IgG (Pierce). The capture and detecting antibody pair that were used to detect Aβ 40 from cell supernatants were affinity purified pAb40 (Biosource) and biotinylated 6E10 (Signet Labs Inc.), respectively. The optimal concentration for the pAb40 antibody was 3 μg/ml in Superblock/TBS (Pierce) that was supplemented with 0.05% Tween 20 (Sigma).
Cellular supernatants were incubated with the capture antibody for 3 h at 4° C., followed by 3 wash steps in TBS-tween (0.05%). The detecting antibody incubation was for 2 h at 4° C., again followed by the wash steps as described previously. The final readout of the ELISA is Time-Resolved Fluorescence (counts per minute) using Delfia reagents Streptavidin-Europium and Enhancement solutions (Perkin Elmer) and the Victor 2 multilabel counter (Perkin Elmer).

BACE 1 (beta secretase enzyme), sequence (P56817 46-501): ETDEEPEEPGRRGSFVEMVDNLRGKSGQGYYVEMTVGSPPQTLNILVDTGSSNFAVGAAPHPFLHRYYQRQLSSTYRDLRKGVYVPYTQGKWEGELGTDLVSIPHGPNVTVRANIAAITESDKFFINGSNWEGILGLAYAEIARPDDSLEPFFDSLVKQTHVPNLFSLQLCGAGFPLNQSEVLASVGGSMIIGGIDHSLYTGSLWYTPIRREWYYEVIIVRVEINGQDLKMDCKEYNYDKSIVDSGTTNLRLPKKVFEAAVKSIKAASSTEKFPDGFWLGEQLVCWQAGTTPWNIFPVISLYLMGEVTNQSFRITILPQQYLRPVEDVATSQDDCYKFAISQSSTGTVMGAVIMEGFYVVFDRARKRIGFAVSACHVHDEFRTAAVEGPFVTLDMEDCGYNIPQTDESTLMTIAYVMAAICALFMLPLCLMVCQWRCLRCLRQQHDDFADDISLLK
Cathepsin D, sequence (P07339 65-412, species assumed): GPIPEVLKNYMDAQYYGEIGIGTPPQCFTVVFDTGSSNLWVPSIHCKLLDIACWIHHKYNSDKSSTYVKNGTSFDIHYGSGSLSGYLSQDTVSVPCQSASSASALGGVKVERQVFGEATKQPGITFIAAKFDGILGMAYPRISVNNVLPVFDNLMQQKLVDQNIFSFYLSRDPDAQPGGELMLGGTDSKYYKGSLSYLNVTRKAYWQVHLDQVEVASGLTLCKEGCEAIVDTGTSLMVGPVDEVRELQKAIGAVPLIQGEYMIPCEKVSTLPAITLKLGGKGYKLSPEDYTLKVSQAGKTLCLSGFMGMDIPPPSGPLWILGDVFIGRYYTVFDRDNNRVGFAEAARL

| IC50 [1] [µM] | IC50 (Cathepsin D) [µM] | IC50 ([2]; Homo sapiens, HEK293) [µM] | IC50 [2] [µM] | SMILES |
| --- | --- | --- | --- | --- |
| 0.0153 | 229 | 0.0077 |  | COc1cnc(C(=O)Nc2ccc3c(c2)[C@@]2(CCSC(N)=N2)c2cc(N4CCOCC4)cc(F)c2O3)cn1 [Example 110, N-((4S)-2-amino-5′-fluoro-7′-(4-morpholinyl)-5,6-dihydrospiro[1,3-thiazine-4,9′-xanthen]-2′-yl)-5-methoxy-2-pyrazinecarboxamide] |
| 0.012 | 452 | 0.0012 |  | COc1cnc(C(=O)Nc2ccc3c(c2)[C@@]2(CCOC(N)=N2)c2cc(C#CC(C)(C)C)ncc2O3)cn1 [Example 86, N-((5S)-2′-amino-3-(3,3-dimethyl-1-butyn-1-yl)-5′,6′-dihydrospiro[chromeno[2,3-c]pyridine-5,4′-[1,3]oxazin]-7-yl)-5-methoxy-2-pyrazinecarboxamide] |
| 0.0405 | > 400 | 0.0465 |  | COc1cc(F)c2c(c1)[C@]1(CCSC(N)=N1)c1cc(NC(=O)c3cnc(OC)cn3)ccc1O2 [Example 50, N-((4S)-2-amino-5′-fluoro-7′-methoxy-5,6-dihydrospiro[1,3-thiazine-4,9′-xanthen]-2′-yl)-5-methoxy-2-pyrazinecarboxamide] |
| 0.0031 | 400 | 0.0038 |  | COc1cnc(C(=O)Nc2ccc3c(c2)[C@@]2(CCSC(N)=N2)c2cc(-c4ccnc(F)c4)nc(F)c2O3)cn1 [Example 114, N-((5S)-2′-amino-1-fluoro-3-(2-fluoro-4-pyridinyl)-5′,6′-dihydrospiro[chromeno[2,3-c]pyridine-5,4′-[1,3]thiazin]-7-yl)-5-methoxy-2-pyrazinecarboxamide] |
| 0.0011 | 120 | 0.0018 |  | COc1ccc(C(=O)Nc2ccc3c(c2)[C@@]2(CCSC(N)=N2)c2cc(-c4cncc(F)c4)nc(F)c2O3)nc1 [Example 113, N-((5S)-2′-amino-1-fluoro-3-(5-fluoro-3-pyridinyl)-5′,6′-dihydrospiro[chromeno[2,3-c]pyridine-5,4′-[1,3]thiazin]-7-yl)-5-methoxy-2-pyridinecarboxamide] |
| 0.0093 | 255 | 0.0004 |  | NC1=N[C@@]2(CCO1)c1cc(NC(=O)c3ccc(F)cn3)ccc1Oc1c2cc(C2=CCCOC2)nc1F [Example 83, N-((5S)-2′-amino-3-(5,6-dihydro-2H-pyran-3-yl)-1-fluoro-5′,6′-dihydrospiro[chromeno[2,3-c]pyridine-5,4′-[1,3]oxazin]-7-yl)-5-fluoro-2-pyridinecarboxamide] |
| 0.0294 | 225 | 0.0823 |  | COc1ccc(C(=O)Nc2ccc3c(c2)[C@@]2(CCSC(N)=N2)c2cc(O)cc(F)c2O3)nc1 [Example 105, N-((4S)-2-amino-5′-fluoro-7′-hydroxy-5,6-dihydrospiro[1,3-thiazine-4,9′-xanthen]-2′-yl)-5-methoxy-2-pyridinecarboxamide] |
| 0.0078 | 326 | 0.0087 |  | COc1ccc(C(=O)Nc2ccc3c(c2)[C@@]2(CCSC(N)=N2)c2cc(N4CCOCC4)cc(F)c2O3)nc1 [Example 107, N-((4S)-2-amino-5′-fluoro-7′-(4-morpholinyl)-5,6-dihydrospiro[1,3-thiazine-4,9′-xanthen]-2′-yl)-5-methoxy-2-pyridinecarboxamide] |
| 0.113 | > 4.94 | 1.66 |  | NC1=N[C@@]2(CCO1)c1cc(NC(=O)c3cnc(O)cn3)ccc1Oc1ncc(Br)cc12 [Example 43, N-((5S)-2′-amino-3-bromo-5′,6′-dihydrospiro[chromeno[2,3-b]pyridine-5,4′-[1,3]oxazin]-7-yl)-5-hydroxy-2-pyrazinecarboxamide] |
| 0.0051 | > 1.65 | 0.0033 |  | NC1=N[C@@]2(CCO1)c1cc(NC(=O)c3ccc(Cl)cn3)ccc1Oc1ncc(C3=CCCOC3)cc12 [Example 35, N-((5S)-2′-amino-3-(5,6-dihydro-2H-pyran-3-yl)-5′,6′-dihydrospiro[chromeno[2,3-b]pyridine-5,4′-[1,3]oxazin]-7-yl)-5-chloro-2-pyridinecarboxamide] |
| 0.0016 | 400 | 0.0007 |  | NC1=N[C@@]2(CCO1)c1cc(NC(=O)c3ccc(Cl)cn3)ccc1Oc1cnc(-c3ccnc(F)c3)cc12 [Example 94, N-((5S)-2′-amino-3-(2-fluoro-4-pyridinyl)-5′,6′-dihydrospiro[chromeno[2,3-c]pyridine-5,4′-[1,3]oxazin]-7-yl)-5-chloro-2-pyridinecarboxamide] |
| 0.0161 | 323 | 0.184 |  | NC1=N[C@@]2(CCO1)c1cc(NC(=O)c3cnc(Cl)cn3)ccc1Oc1c2cc(Cl)nc1F [Example 49, N-((5S)-2′-amino-3-chloro-1-fluoro-5′,6′-dihydrospiro[chromeno[2,3-c]pyridine-5,4′-[1,3]oxazin]-7-yl)-5-chloro-2-pyrazinecarboxamide] |
| 0.0004 | 162 | 0.0022 |  | COc1ccc(C(=O)Nc2ccc3c(c2)[C@@]2(CCSC(N)=N2)c2cc(-c4ccnc(F)c4)nc(F)c2O3)nc1 [Example 115, N-((5S)-2′-amino-1-fluoro-3-(2-fluoro-4-pyridinyl)-5′,6′-dihydrospiro[chromeno[2,3-c]pyridine-5,4′-[1,3]thiazin]-7-yl)-5-methoxy-2-pyridinecarboxamide] |
| 0.0062 | > 400 | 0.167 |  | COc1cnc(C(=O)Nc2ccc3c(c2)[C@@]2(CCSC(N)=N2)c2cc(Cl)nc(F)c2O3)cn1 [Example 56, N-((5S)-2′-amino-3-chloro-1-fluoro-5′,6′-dihydrospiro[chromeno[2,3-c]pyridine-5,4′-[1,3]thiazin]-7-yl)-5-methoxy-2-pyrazinecarboxamide] |
| 0.0054 | 159 | 0.0018 |  | COc1cnc(C(=O)Nc2ccc3c(c2)[C@@]2(CCSC(N)=N2)c2cc(C4=CCOCC4)nc(F)c2O3)c(C)c1 [Example 121, N-((5S)-2′-amino-3-(3,6-dihydro-2H-pyran-4-yl)-1-fluoro-5′,6′-dihydrospiro[chromeno[2,3-c]pyridine-5,4′-[1,3]thiazin]-7-yl)-5-methoxy-3-methyl-2-pyridinecarboxamide] |
| 0.0026 | 311 | 0.0006 |  | NC1=N[C@@]2(CCS1)c1cc(NC(=O)c3ncc(Cl)cc3F)ccc1Oc1c2cc(C2=CCOCC2)nc1F [Example 119, N-((5S)-2′-amino-3-(3,6-dihydro-2H-pyran-4-yl)-1-fluoro-5′,6′-dihydrospiro[chromeno[2,3-c]pyridine-5,4′-[1,3]thiazin]-7-yl)-5-chloro-3-fluoro-2-pyridinecarboxamide] |
| 7.29 | 400 |  | 3.51 | COc1cc(F)c2c(c1)[C@]1(CCOC(N)=N1)c1cc(Nc3ncccc3OCc3ccccc3)ccc1O2 [Example 57, (4S)-N~2~′-(3-(benzyloxy)-2-pyridinyl)-5′-fluoro-7′-methoxy-5,6-dihydrospiro[1,3-oxazine-4,9′-xanthene]-2,2′-diamine] |
| 0.002 | 132 | 0.0005 |  | N#Cc1ccc(C(=O)Nc2ccc3c(c2)[C@@]2(CCOC(N)=N2)c2cc(C4=CCCOC4)nc(F)c2O3)nc1 [Example 52, N-((5S)-2′-amino-3-(5,6-dihydro-2H-pyran-3-yl)-1-fluoro-5′,6′-dihydrospiro[chromeno[2,3-c]pyridine-5,4′-[1,3]oxazin]-7-yl)-5-cyano-2-pyridinecarboxamide] |
| 0.12 | > 400 | 0.125 |  | NC1=N[C@@]2(CCO1)c1cc(NC(=O)c3ccc(Cl)cc3F)ccc1Oc1ncc(Br)cc12 [Example 37, N-((5S)-2′-amino-3-bromo-5′,6′-dihydrospiro[chromeno[2,3-b]pyridine-5,4′-[1,3]oxazin]-7-yl)-4-chloro-2-fluorobenzamide] |
